According to PubChem BioAssay (NCI):
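Growth conditions: 96-well plates. Treatment: test compound, 48 hours, 5 concentrations. Analysis: linear interpolation between bracketing concentrations; unreached endpoints set to highest concentration. TGI is the concentration that stops growth completely.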

How the values were obtained:
Assay in all cases: growth of human tumour cells (NCI), 48 h
786-0 renal = tested on: 786-0 renal
A498 renal = tested on: A498 renal
A549 NSCLC = tested on: A549 NSCLC
ACHN renal = tested on: ACHN renal
BT-549 breast = tested on: BT-549 breast
CAKI-1 renal = tested on: CAKI-1 renal
CCRF-CEM leukemia = tested on: CCRF-CEM leukemia
COLO 205 colon = tested on: COLO 205 colon
DU-145 prostate = tested on: DU-145 prostate
EKVX NSCLC = tested on: EKVX NSCLC
HCT-116 colon = tested on: HCT-116 colon
HCT-15 colon = tested on: HCT-15 colon
HL-60(TB) leukemia = tested on: HL-60(TB) leukemia
HOP-62 NSCLC = tested on: HOP-62 NSCLC
HOP-92 NSCLC = tested on: HOP-92 NSCLC
HS 578T breast = tested on: HS 578T breast
HT29 colon = tested on: HT29 colon
IGROV1 ovarian = tested on: IGROV1 ovarian
K-562 leukemia = tested on: K-562 leukemia
KM12 colon = tested on: KM12 colon
LOX IMVI melanoma = tested on: LOX IMVI melanoma
M14 melanoma = tested on: M14 melanoma
MALME-3M melanoma = tested on: MALME-3M melanoma
MCF7 breast = tested on: MCF7 breast
MDA-MB-231 breast = tested on: MDA-MB-231 breast
MDA-MB-435 = tested on: MDA-MB-435
MDA-N = tested on: MDA-N
MOLT-4 leukemia = tested on: MOLT-4 leukemia
NCI-H226 lung = tested on: NCI-H226 lung
NCI-H23 lung = tested on: NCI-H23 lung
NCI-H460 lung = tested on: NCI-H460 lung
NCI-H522 lung = tested on: NCI-H522 lung
NCI/ADR-RES ovarian = tested on: NCI/ADR-RES ovarian
OVCAR-3 ovarian = tested on: OVCAR-3 ovarian
OVCAR-4 ovarian = tested on: OVCAR-4 ovarian
OVCAR-5 ovarian = tested on: OVCAR-5 ovarian
OVCAR-8 ovarian = tested on: OVCAR-8 ovarian
PC-3 prostate = tested on: PC-3 prostate
RPMI-8226 leukemia = tested on: RPMI-8226 leukemia
RXF 393 renal = tested on: RXF 393 renal
SF-268 CNS = tested on: SF-268 CNS
SF-295 CNS = tested on: SF-295 CNS
SF-539 CNS = tested on: SF-539 CNS
SK-MEL-2 melanoma = tested on: SK-MEL-2 melanoma
SK-MEL-28 melanoma = tested on: SK-MEL-28 melanoma
SK-MEL-5 melanoma = tested on: SK-MEL-5 melanoma
SK-OV-3 ovarian = tested on: SK-OV-3 ovarian
SN12C renal = tested on: SN12C renal
SNB-19 CNS = tested on: SNB-19 CNS
SNB-75 CNS = tested on: SNB-75 CNS
SW-620 colon = tested on: SW-620 colon
T-47D breast = tested on: T-47D breast
TK-10 renal = tested on: TK-10 renal
U251 CNS = tested on: U251 CNS
UACC-257 melanoma = tested on: UACC-257 melanoma
UACC-62 melanoma = tested on: UACC-62 melanoma
UO-31 renal = tested on: UO-31 renal

CCOP(=O)(CN1CCNCCN(CP(=O)(OCC)OCC)CC1)OCC
TGI (786-0 renal): > 100 µM | TGI (A498 renal): > 100 µM | TGI (A549 NSCLC): > 100 µM | TGI (ACHN renal): > 100 µM | TGI (BT-549 breast): > 100 µM | TGI (CAKI-1 renal): > 100 µM | TGI (CCRF-CEM leukemia): > 31.6 µM | TGI (COLO 205 colon): > 100 µM | TGI (DU-145 prostate): > 100 µM | TGI (EKVX NSCLC): > 100 µM | TGI (HCT-116 colon): > 100 µM | TGI (HCT-15 colon): > 100 µM | TGI (HL-60(TB) leukemia): > 100 µM | TGI (HOP-62 NSCLC): > 100 µM | TGI (HOP-92 NSCLC): > 100 µM | TGI (HS 578T breast): > 100 µM | TGI (HT29 colon): > 100 µM | TGI (IGROV1 ovarian): > 100 µM | TGI (K-562 leukemia): > 100 µM | TGI (KM12 colon): > 100 µM | TGI (LOX IMVI melanoma): > 100 µM | TGI (M14 melanoma): > 100 µM | TGI (MALME-3M melanoma): > 30.4 µM | TGI (MCF7 breast): > 100 µM | TGI (MDA-MB-231 breast): > 100 µM | TGI (MDA-MB-435): > 100 µM | TGI (MDA-N): > 100 µM | TGI (MOLT-4 leukemia): > 100 µM | TGI (NCI-H226 lung): > 100 µM | TGI (NCI-H23 lung): > 100 µM | TGI (NCI-H460 lung): > 100 µM | TGI (NCI-H522 lung): > 100 µM | TGI (NCI/ADR-RES ovarian): > 100 µM | TGI (OVCAR-3 ovarian): > 100 µM | TGI (OVCAR-4 ovarian): > 100 µM | TGI (OVCAR-5 ovarian): > 100 µM | TGI (OVCAR-8 ovarian): > 100 µM | TGI (PC-3 prostate): > 100 µM | TGI (RPMI-8226 leukemia): > 100 µM | TGI (RXF 393 renal): > 100 µM | TGI (SF-268 CNS): > 100 µM | TGI (SF-295 CNS): > 100 µM | TGI (SF-539 CNS): > 100 µM | TGI (SK-MEL-2 melanoma): > 100 µM | TGI (SK-MEL-28 melanoma): > 100 µM | TGI (SK-MEL-5 melanoma): > 100 µM | TGI (SK-OV-3 ovarian): > 100 µM | TGI (SN12C renal): > 100 µM | TGI (SNB-19 CNS): > 100 µM | TGI (SNB-75 CNS): > 100 µM | TGI (SW-620 colon): > 100 µM | TGI (T-47D breast): > 100 µM | TGI (TK-10 renal): > 100 µM | TGI (U251 CNS): > 100 µM | TGI (UACC-257 melanoma): > 100 µM | TGI (UACC-62 melanoma): > 100 µM | TGI (UO-31 renal): > 100 µM

O=C1NC(N/N=C/c2cccs2)=N/C1=C\c1ccco1
TGI (786-0 renal): > 100 µM | TGI (A498 renal): 82.5 µM | TGI (A549 NSCLC): > 100 µM | TGI (ACHN renal): > 100 µM | TGI (BT-549 breast): > 100 µM | TGI (CAKI-1 renal): > 100 µM | TGI (CCRF-CEM leukemia): > 100 µM | TGI (COLO 205 colon): > 100 µM | TGI (DU-145 prostate): > 100 µM | TGI (EKVX NSCLC): > 100 µM | TGI (HCT-116 colon): > 100 µM | TGI (HCT-15 colon): > 100 µM | TGI (HL-60(TB) leukemia): > 100 µM | TGI (HOP-62 NSCLC): > 100 µM | TGI (HOP-92 NSCLC): > 100 µM | TGI (HS 578T breast): 76.7 µM | TGI (HT29 colon): > 100 µM | TGI (IGROV1 ovarian): > 100 µM | TGI (K-562 leukemia): > 100 µM | TGI (KM12 colon): > 100 µM | TGI (LOX IMVI melanoma): > 100 µM | TGI (M14 melanoma): > 100 µM | TGI (MALME-3M melanoma): > 100 µM | TGI (MCF7 breast): > 100 µM | TGI (MDA-MB-231 breast): > 100 µM | TGI (MDA-MB-435): 90.4 µM | TGI (MDA-N): 13.6 µM | TGI (MOLT-4 leukemia): > 100 µM | TGI (NCI-H226 lung): > 100 µM | TGI (NCI-H23 lung): > 100 µM | TGI (NCI-H460 lung): > 100 µM | TGI (NCI-H522 lung): 39.9 µM | TGI (NCI/ADR-RES ovarian): > 100 µM | TGI (OVCAR-3 ovarian): 74.4 µM | TGI (OVCAR-4 ovarian): > 100 µM | TGI (OVCAR-5 ovarian): > 100 µM | TGI (OVCAR-8 ovarian): > 100 µM | TGI (PC-3 prostate): > 100 µM | TGI (RPMI-8226 leukemia): 94.8 µM | TGI (RXF 393 renal): > 100 µM | TGI (SF-268 CNS): > 100 µM | TGI (SF-295 CNS): > 100 µM | TGI (SF-539 CNS): > 100 µM | TGI (SK-MEL-2 melanoma): 62.4 µM | TGI (SK-MEL-28 melanoma): > 100 µM | TGI (SK-MEL-5 melanoma): > 100 µM | TGI (SK-OV-3 ovarian): 70.6 µM | TGI (SN12C renal): > 100 µM | TGI (SNB-19 CNS): > 100 µM | TGI (SNB-75 CNS): > 100 µM | TGI (SW-620 colon): > 100 µM | TGI (T-47D breast): > 100 µM | TGI (TK-10 renal): > 100 µM | TGI (U251 CNS): > 100 µM | TGI (UACC-257 melanoma): > 100 µM | TGI (UACC-62 melanoma): > 100 µM | TGI (UO-31 renal): > 100 µM
